Assay results taken from patent publication US20230201173A1, “SMAD4 Complex Inducers and Uses in Cancer Therapy” (Emory University, priority 2021, published 2023).

Key:
[1] = tested on: HCT116 cells (WT), SMAD4 knockout (null) and R361H isogenic cells; assay: Cell viability (CellTiter-Blue) in isogenic colon cancer cells; format: cell-based; conditions: Ro-31-8220 1 μM
Experimental: HCT116 cells (WT) and corresponding SMAD4 knockout (null) or R361H, isogenic cells were treated with TGF-β (10 ng/mL), Ro-31-8220 (1 μM), Go-6983 (10 μM), or in combination as indicated. The cell viability after treatment was measured using the CellTiter-Blue™ reagent and normalized to the untreated vehicle or DMSO controls (% C).
(§1) Experiments indicate that Ro-31-8220 is capable of restoring the SMAD4mut/SMAD3 PPI and the tumor-suppressive TGF-β signaling in the SMAD4 mutation cells. Experiments were also performed to determine whether Ro-31-8220 can promote TGF-β-evoked anti-proliferation function in cancer cells with SMAD4 missense mutations. Three functional assays were performed to measure the effect of Ro-31-8220 on cell-cycle progression, cell proliferation, and colony formation with WT and isogenic SMAD4 mutant colon cancer cells.
Thus, the effect of Ro-31-8220 on TGF-β-regulated cell proliferation was examined in the context of the SMAD4 mutation. TGF-β induced a significant decrease of cell viability of SMAD4 WT cells, while the isogenic SMAD4 null or R361H cells were resistant to such TGF-β-induced growth suppression (FIG. 3B).

SMAD4D351H-SMAD3 PPI = molecular target: T1, SMAD4D351H-SMAD3 PPI (Homo sapiens, UniProt Q13485, D351H); assay: GST pull-down assay of SMAD4D351H-SMAD3 complex formation; format: binding; conditions: DMSO as control
T1 construct: expressed in transfected cells
Text: To evaluate the mutation selectivity of Ro-31-8220 and Go-6983, their potentiation effect on other SMAD4 loss-of-function mutations, such as D351H, was examined. The PPI between SMAD3 and SMAD4D351H was studied in the presence of these compounds with DMSO as a control.

[2] = tested on: HCT116 isogenic SMAD4 R361H cells; assay: Colony formation assay; format: cell-based; conditions: TGF-β 10 ng/mL; Ro-31-8220 1 μM, Go-6983 10 μM
Experimental: Parental HCT116 (WT) and isogenic R361H cells were treated with TGF-β (10 ng/mL), Ro-31-8220 (1 μM), Go-6983 (10 μM), or in combination as indicated.
as §1
The lost tumor suppressor function of mutated SMAD4, R361H, can be recapitulated in an in vitro tumorigenic assay. Colon cancer HCT116 cells with WT and their isogenic mutant SMAD4 cells can grow into large colonies.

[3] = molecular target: T2, His-SMAD4R361H/Flag-SMAD3 PPI (Homo sapiens, UniProt Q13485, R361H); assay: TR-FRET assay of the SMAD4R361H/SMAD3 protein-protein interaction in cell lysate; format: binding; conditions: dose-response, read-out: EC50, increase of the TR-FRET signal of SMAD4R361H-SMAD3 PPI
T2 construct: expressed in transfected cells; host or cells: HEK293T

[4] = tested on: SMAD4R361H with R-SMADs (SMAD3, SMAD2, SMAD1, SMAD5, SMAD8); assay: TR-FRET assay of SMAD4R361H with different R-SMAD isoforms; format: binding, Homo sapiens; conditions: for R-SMAD selectivity in inducing the interaction of SMAD4R361H with SMAD3 and SMAD2: among all the tested R-SMADs; for compound-induced TR-FRET signal for SMAD4R361H interaction with SMAD3 versus other R-SMADs: compound titration
Experimental: To determine the R-SMADs selectivity of Ro-31-8220 and Go-6983, experiments were performed to determine their effects on inducing PPI between SMAD4R361H and different isoforms of R-SMADs using the TR-FRET assay.

SMAD4R361H-SMAD3 complex = molecular target: T3, SMAD4R361H-SMAD3 complex (Homo sapiens, UniProt Q13485, R361H); assay: GST beads pull-down assay of SMAD4R361H-SMAD3 complex formation; format: binding; conditions: cell lysate treated with compound, read-out: EC50, amount of SMAD3 in the SMAD4R361H complex
T3 construct: expressed in transfected cells

[5] = tested on: HCT116 isogenic SMAD4 R361H cells; assay: Flow cytometry-based cell-cycle analysis (G1/S phase); conditions: TGF-β 10 ng/mL; Ro-31-8220 1 μM, Go-6983 10 μM
Experimental: Parental HCT116 (WT) and isogenic R361H cells were treated with TGF-β (10 ng/mL), Ro-31-8220 (1 μM), Go-6983 (10 μM), or in combination as indicated. The percentage of cells staying in G1/S phase was determined by flow cytometry.
as §1

R361H cells = assay: Transcriptional response to TGF-β (pro-apoptotic and pro-autophagy genes); format: cell-based
Flag-SMAD3, P84022 = assay: TR-FRET, HEK293T cell lysate, anti-Flag-Tb / anti-His-D2; conditions: remark: other sources report otherwise
Flag-SMAD3, P84022, sequence (P84022 whole entry): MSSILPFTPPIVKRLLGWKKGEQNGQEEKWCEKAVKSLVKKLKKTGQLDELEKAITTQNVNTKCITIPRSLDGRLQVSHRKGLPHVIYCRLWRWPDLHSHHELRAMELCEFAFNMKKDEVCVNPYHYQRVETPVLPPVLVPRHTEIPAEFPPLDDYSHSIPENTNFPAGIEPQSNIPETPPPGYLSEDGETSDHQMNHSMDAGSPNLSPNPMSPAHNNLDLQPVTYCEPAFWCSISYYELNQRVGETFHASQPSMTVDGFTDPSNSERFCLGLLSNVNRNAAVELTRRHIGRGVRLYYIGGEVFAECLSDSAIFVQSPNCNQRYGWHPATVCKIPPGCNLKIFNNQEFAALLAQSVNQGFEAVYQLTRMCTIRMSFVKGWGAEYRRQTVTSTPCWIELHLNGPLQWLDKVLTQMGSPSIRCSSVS

T3 sequence (P84022 whole entry partner, one chain of several): as the sequence (P84022 whole entry) above
T2 sequence (P84022 whole entry partner, one chain of several): as the sequence (P84022 whole entry) above
T1 sequence (Q13485 whole entry D351H): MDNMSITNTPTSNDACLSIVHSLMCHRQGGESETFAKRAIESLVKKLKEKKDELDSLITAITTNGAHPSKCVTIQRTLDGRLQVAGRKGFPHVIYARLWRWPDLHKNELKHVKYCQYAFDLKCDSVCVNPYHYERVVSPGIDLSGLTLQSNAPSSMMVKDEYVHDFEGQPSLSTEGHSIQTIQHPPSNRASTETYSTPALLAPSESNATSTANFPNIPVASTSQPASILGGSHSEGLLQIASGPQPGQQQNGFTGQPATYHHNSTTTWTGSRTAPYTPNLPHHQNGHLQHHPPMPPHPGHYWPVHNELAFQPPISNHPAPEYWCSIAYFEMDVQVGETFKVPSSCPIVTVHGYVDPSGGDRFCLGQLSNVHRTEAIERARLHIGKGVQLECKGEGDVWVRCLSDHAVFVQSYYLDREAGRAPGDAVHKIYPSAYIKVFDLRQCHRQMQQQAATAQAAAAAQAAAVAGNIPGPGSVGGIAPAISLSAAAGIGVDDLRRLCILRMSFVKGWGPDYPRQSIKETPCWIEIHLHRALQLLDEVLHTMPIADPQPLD
T1 sequence (P84022 whole entry partner): as the sequence (P84022 whole entry) above

Molecule	combination with TGF-β in inhibiting cell viability ([1]; TGF-β 10 ng/mL, Go-6983 10 μM)	SMAD3 level in the D351H GST pull-down complex (SMAD4D351H-SMAD3 PPI)	combination with TGF-β in inhibiting colon cancer cell colony formation [2]	EC50 [3]	R-SMAD selectivity in inducing the interaction of SMAD4R361H with SMAD3 and SMAD2 [4]	compound-induced TR-FRET signal for SMAD4R361H interaction with SMAD3 versus other R-SMADs [4]	EC50 (SMAD4R361H-SMAD3 complex)	sensitivity of SMAD4 R361H cells to TGF-β-induced growth suppression ([1]; R361H cells, TGF-β 10 ng/mL, Go-6983 10 μM)	growth inhibition by compound treatment alone ([1]; SMAD4 WT, null and R361H cells)	sensitivity of R361H cells to TGF-β-induced G1/S cell-cycle arrest [5]	colony area of R361H cells, sensitivity to TGF-β-induced inhibition of colony formation [2]	transcriptional response of R361H cells to TGF-β (R361H cells)	signal-to-background ratio (Flag-SMAD3, P84022)
COc1ccc2c(c1)c(C1=C(c3c[nH]c4ccccc34)C(=O)NC1=O)cn2CCCN(C)C [Go-6983, 3-(1-(3-(dimethylamino)propyl)-5-methoxy-1H-indol-3-yl)-4-(1H-indol-3-yl)-1H-pyrrole-2,5-dione]	synergistic effect	significantly restored	synergistic effect	15.2 ± 2.9 µM	selective	significantly higher	8.9 ± 0.7 µM						
Cn1cc(C2=C(c3cn(CCCSC(=N)N)c4ccccc34)C(=O)NC2=O)c2ccccc21 [Ro-31-8220, 3-(3-(4-(1-methyl-1H-indol-3-yl)-2,5-dioxo-2,5-dihydro-1H-pyrrol-3-yl)-1H-indol-1-yl)propyl carbamimidothioate]	synergistic effect	significantly restored	synergistic effect	3.9 ± 1 µM	selective	significantly higher	2.1 ± 0.7 µM	restored the sensitivity	did not result in any significant growth inhibition	regained sensitivity	significantly decreased colony area	restored the transcriptional response	
His-SMAD4WT, Q13485 1-552 (protein, not shown: small tags and cut ends) MDNMSITNTPTSNDACLSIVHSLMCHRQGGESETFAKRAIESLVKKLKEKKDELDSLITAITTNGAHPSKCVTIQRTLDGRLQVAGRKGFPHVIYARLWRWPDLHKNELKHVKYCQYAFDLKCDSVCVNPYHYERVVSPGIDLSGLTLQSNAPSSMMVKDEYVHDFEGQPSLSTEGHSIQTIQHPPSNRASTETYSTPALLAPSESNATSTANFPNIPVASTSQPASILGGSHSEGLLQIASGPQPGQQQNGFTGQPATYHHNSTTTWTGSRTAPYTPNLPHHQNGHLQHHPPMPPHPGHYWPVHNELAFQPPISNHPAPEYWCSIAYFEMDVQVGETFKVPSSCPIVTVDGYVDPSGGDRFCLGQLSNVHRTEAIERARLHIGKGVQLECKGEGDVWVRCLSDHAVFVQSYYLDREAGRAPGDAVHKIYPSAYIKVFDLRQCHRQMQQQAATAQAAAAAQAAAVAGNIPGPGSVGGIAPAISLSAAAGIGVDDLRRLCILRMSFVKGWGPDYPRQSIKETPCWIEIHLHRALQLLDEVLHTMPIADPQPLD													30 fold
His-SMAD4R361H, Q13485 1-552 (protein, not shown: small tags and cut ends) MDNMSITNTPTSNDACLSIVHSLMCHRQGGESETFAKRAIESLVKKLKEKKDELDSLITAITTNGAHPSKCVTIQRTLDGRLQVAGRKGFPHVIYARLWRWPDLHKNELKHVKYCQYAFDLKCDSVCVNPYHYERVVSPGIDLSGLTLQSNAPSSMMVKDEYVHDFEGQPSLSTEGHSIQTIQHPPSNRASTETYSTPALLAPSESNATSTANFPNIPVASTSQPASILGGSHSEGLLQIASGPQPGQQQNGFTGQPATYHHNSTTTWTGSRTAPYTPNLPHHQNGHLQHHPPMPPHPGHYWPVHNELAFQPPISNHPAPEYWCSIAYFEMDVQVGETFKVPSSCPIVTVDGYVDPSGGDHFCLGQLSNVHRTEAIERARLHIGKGVQLECKGEGDVWVRCLSDHAVFVQSYYLDREAGRAPGDAVHKIYPSAYIKVFDLRQCHRQMQQQAATAQAAAAAQAAAVAGNIPGPGSVGGIAPAISLSAAAGIGVDDLRRLCILRMSFVKGWGPDYPRQSIKETPCWIEIHLHRALQLLDEVLHTMPIADPQPLD													10 fold
